Assay results: PubChem BioAssay (NCI)
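96-well plates; 48 h exposure; 5 concentrations. Endpoints by linear interpolation between flanking doses. Not reached: highest tested concentration assigned. TGI is the concentration that stops growth completely.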

What was measured:
Experiment in all cases: DTP human tumour cell line panel, 48 h
[1] = system: NCI-H460 lung
[2] = system: OVCAR-5 ovarian
[3] = system: UO-31 renal
[4] = system: A498 renal
[5] = system: CAKI-1 renal
[6] = system: SNB-19 CNS
[7] = system: TK-10 renal
[8] = system: CCRF-CEM leukemia
[9] = system: MDA-N
[10] = system: SK-MEL-5 melanoma
[11] = system: SK-OV-3 ovarian
[12] = system: SK-MEL-2 melanoma
[13] = system: A549 NSCLC
[14] = system: BT-549 breast
[15] = system: U251 CNS
[16] = system: NCI-H522 lung
[17] = system: HT29 colon
[18] = system: HOP-92 NSCLC
[19] = system: NCI-H226 lung
[20] = system: COLO 205 colon
[21] = system: SN12C renal
[22] = system: UACC-257 melanoma
[23] = system: PC-3 prostate
[24] = system: MCF7 breast
[25] = system: MDA-MB-231 breast
[26] = system: KM12 colon
[27] = system: LOX IMVI melanoma
[28] = system: RPMI-8226 leukemia
[29] = system: M14 melanoma
[30] = system: SNB-75 CNS
[31] = system: EKVX NSCLC
[32] = system: HL-60(TB) leukemia
[33] = system: SF-268 CNS
[34] = system: MOLT-4 leukemia
[35] = system: HS 578T breast
[36] = system: NCI-H23 lung
[37] = system: T-47D breast
[38] = system: SW-620 colon
[39] = system: SK-MEL-28 melanoma
[40] = system: UACC-62 melanoma
[41] = system: HCT-15 colon
[42] = system: HOP-62 NSCLC
[43] = system: MDA-MB-435
[44] = system: SF-295 CNS
[45] = system: NCI/ADR-RES ovarian
[46] = system: DU-145 prostate
[47] = system: K-562 leukemia
[48] = system: OVCAR-8 ovarian
[49] = system: IGROV1 ovarian
[50] = system: MALME-3M melanoma
[51] = system: 786-0 renal
[52] = system: ACHN renal
[53] = system: HCC-2998 colon
[54] = system: RXF 393 renal
[55] = system: OVCAR-4 ovarian
[56] = system: OVCAR-3 ovarian
[57] = system: SF-539 CNS
[58] = system: HCT-116 colon

O=C(O)c1ccccc1Sc1ccccc1[N+](=O)[O-]
TGI [1]: > 100 µM
TGI [2]: > 100 µM
TGI [3]: > 100 µM
TGI [4]: > 100 µM
TGI [5]: > 100 µM
TGI [6]: > 100 µM
TGI [7]: > 100 µM
TGI [8]: > 100 µM
TGI [9]: > 100 µM
TGI [10]: > 100 µM
TGI [11]: > 100 µM
TGI [12]: > 100 µM
TGI [13]: > 100 µM
TGI [14]: > 100 µM
TGI [15]: > 100 µM
TGI [16]: > 100 µM
TGI [17]: > 100 µM
TGI [18]: > 100 µM
TGI [19]: > 100 µM
TGI [20]: > 100 µM
TGI [21]: > 100 µM
TGI [22]: > 100 µM
TGI [23]: > 100 µM
TGI [24]: > 100 µM
TGI [25]: > 100 µM
TGI [26]: > 100 µM
TGI [27]: > 100 µM
TGI [28]: > 100 µM
TGI [29]: > 100 µM
TGI [30]: > 100 µM
TGI [31]: > 100 µM
TGI [32]: > 100 µM
TGI [33]: > 100 µM
TGI [34]: > 100 µM
TGI [35]: > 100 µM
TGI [36]: > 100 µM
TGI [37]: > 100 µM
TGI [38]: > 100 µM
TGI [39]: > 100 µM
TGI [40]: > 100 µM
TGI [41]: > 100 µM
TGI [42]: > 100 µM
TGI [43]: > 100 µM
TGI [44]: > 100 µM
TGI [45]: > 100 µM
TGI [46]: > 100 µM
TGI [47]: > 100 µM
TGI [48]: > 100 µM
TGI [49]: > 100 µM
TGI [50]: > 100 µM
TGI [51]: > 100 µM
TGI [52]: > 100 µM
TGI [53]: > 100 µM
TGI [54]: > 100 µM
TGI [55]: > 100 µM
TGI [56]: > 100 µM
TGI [57]: > 100 µM
TGI [58]: > 100 µM

CC1=NN(C(=O)CC(=O)N(C(=O)c2ccccc2)c2ccc(Cl)cc2)C(=O)C1N=Nc1ccc([N+](=O)[O-])cc1 (stereo not given)
TGI [1]: > 10 µM
TGI [2]: > 10 µM
TGI [3]: > 10 µM
TGI [4]: > 10 µM
TGI [5]: > 10 µM
TGI [6]: > 10 µM
TGI [7]: > 10 µM
TGI [8]: > 10 µM
TGI [9]: > 10 µM
TGI [10]: > 10 µM
TGI [11]: > 10 µM
TGI [12]: > 10 µM
TGI [13]: > 10 µM
TGI [14]: > 10 µM
TGI [15]: > 10 µM
TGI [16]: > 10 µM
TGI [17]: > 10 µM
TGI [18]: > 10 µM
TGI [19]: > 10 µM
TGI [20]: > 10 µM
TGI [21]: > 10 µM
TGI [22]: > 10 µM
TGI [23]: > 10 µM
TGI [24]: > 10 µM
TGI [25]: > 10 µM
TGI [26]: > 10 µM
TGI [27]: > 10 µM
TGI [28]: > 10 µM
TGI [30]: > 10 µM
TGI [31]: > 10 µM
TGI [32]: > 10 µM
TGI [33]: > 10 µM
TGI [34]: > 10 µM
TGI [35]: > 10 µM
TGI [36]: > 10 µM
TGI [37]: > 10 µM
TGI [38]: > 10 µM
TGI [39]: > 10 µM
TGI [40]: > 10 µM
TGI [41]: > 10 µM
TGI [42]: > 10 µM
TGI [43]: > 10 µM
TGI [44]: > 10 µM
TGI [45]: > 10 µM
TGI [46]: > 10 µM
TGI [47]: > 10 µM
TGI [48]: > 10 µM
TGI [49]: > 10 µM
TGI [50]: > 10 µM
TGI [51]: > 10 µM
TGI [52]: > 10 µM
TGI [53]: > 10 µM
TGI [54]: > 10 µM
TGI [55]: > 10 µM
TGI [56]: > 10 µM
TGI [57]: > 10 µM
TGI [58]: > 10 µM
